Laboratory results: PubChem BioAssay (NCI)
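In this assay, cells in 96-well plates receive the compound at five concentrations for 48 hours. Endpoints are linearly interpolated between the surrounding concentrations. GI50: concentration for 50% inhibition of growth. The concentration for full growth arrest is given as TGI.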

Key:
Test in all cases: NCI-60 cell line screen, 48 h
[1] = system: SK-MEL-5 melanoma
[2] = system: OVCAR-4 ovarian
[3] = system: A549 NSCLC
[4] = system: NCI-H23 lung
[5] = system: TK-10 renal
[6] = system: SR leukemia
[7] = system: SNB-19 CNS
[8] = system: NCI-H226 lung
[9] = system: NCI/ADR-RES ovarian
[10] = system: PC-3 prostate

SMILES	TGI [1] [µM]	TGI [2] [µM]	TGI [3] [µM]	TGI [4] [µM]	TGI [5] [µM]	TGI [6] [µM]	TGI [7] [µM]	TGI [8] [µM]	GI50 [1] [µM]	GI50 [2] [µM]	GI50 [8] [µM]	GI50 [4] [µM]	GI50 [5] [µM]	GI50 [6] [µM]	GI50 [9] [µM]	TGI [9] [µM]	GI50 [7] [µM]	GI50 [10] [µM]	TGI [10] [µM]	GI50 [3] [µM]
CNS(=O)(=O)NNS(=O)(=O)c1ccc(C)cc1	> 100	> 100	> 100	> 100	> 100	> 100	> 100													
COC1=CC(=O)C(O)=C(CC2(C)C(C)CCC3(C)C2CCCC3(C)C)C1=O (centres undefined)	12.2	> 100	11.6	8.05	37.2	12.8	19.3	9.91												
C/C(=C\c1ccccc1)C(O)C(=O)c1nc2ccc(Cl)cc2[nH]c1=O (centres undefined)	> 100	> 100	> 100	> 100	> 100	> 100	> 100	> 100												
CCN1CCN(CC(=O)Nc2nc3ccc(NCc4ccc(Br)cc4)cc3s2)CC1	3.08	26.8		> 100	4.55	> 100	6.93	> 100	1.68	3.19	7.89	3.22	2.24	2.42	3.3	> 100	2.6			
CC1(C)CC(=O)C(C(=O)Nc2cccs2)=C(O)C1	> 100	> 100	> 100	95.7	> 100	> 100	> 100	86.8												
Oc1c(Br)cc(Cl)cc1C(c1cc(Cl)cc(Br)c1O)C(Cl)(Cl)Cl	3.83	13.1	11.7	7.01	13.3		15.9	8.61	1.64	2.86	2.72	1.8	4.3		2.48	8.66	3.13	2.11	8.21	3.13
CCCCCNC(=O)CCCCCCCCCCCNC(=O)CCCCCCCCCCN1C=CC(=CC=C2C=CC(=O)C=C2)C=C1	> 100	> 100	> 100	> 100		> 100	> 100	> 100												
COc1ccc2cc3n(c(=O)c2c1)CCc1c-3cc(OC)c(OC)c1OC	> 100	> 100	> 100	> 100	> 100	> 100	> 100	> 100												
COc1ccc(C(C)Nc2cc(OC)c(OC)c(OC)c2)cc1 (centres undefined)	> 100	63.8	> 100	> 39.6	> 100	> 100	> 100	> 100												
O=C1NC(=O)N(S(=O)(=O)c2cc(C(=O)Nc3ccc(Cl)cc3)c(Cl)cc2S)S(=O)(=O)N1	28.5	> 100	55.6	34.3	45.5			56.1	13.1	24.2	22.2	18.5	23.8		28.1	85.6		17.8	52	25.1
